Test system: MV-4-11 cells
Test: Gene expression microarray analysis (Affymetrix PrimeView) and GSEA
Type: cell-based, human
Set-up: RFU PODN (11730768_x_at) / Fold change /veh PODN (11730768_x_at) / RFU LINC00158 (11744669_a_at) / Fold change /veh LINC00158 (11744669_a_at) / RFU DUSP10 (11751237_a_at) / Fold change /veh DUSP10 (11751237_a_at) / RFU ID3 (11757404_x_at) / Fold change /veh ID3 (11757404_x_at) / RFU PLEKHG5 (11737974_s_at) / Fold change /veh PLEKHG5 (11737974_s_at) / RFU LRRC4B (11730491_at) / Fold change /veh LRRC4B (11730491_at) / RFU GIMAP4 (11747438_a_at) / Fold change /veh GIMAP4 (11747438_a_at) / RFU KRT8 (11758183_x_at) / Fold change /veh KRT8 (11758183_x_at) / RFU CNN1 (11734310_a_at) / Fold change /veh CNN1 (11734310_a_at) / RFU VPS37D (11726825_at) / Fold change /veh VPS37D (11726825_at) / RFU C10orf10 (11716522_x_at) / Fold change /veh C10orf10 (11716522_x_at) / RFU KIR2DL2 /// KIR2DL4 /// KIR2DL5A /// KIR2DL5B /// KIR2DS1 /// KIR2DS2 /// KIR2DS3 /// KIR2DS4 /// KIR3DL3 /// KIR3DL3 /// KIR3DS1 (11738374_at) / Fold change /veh KIR2DL2 /// KIR2DL4 /// KIR2DL5A /// KIR2DL5B /// KIR2DS1 /// KIR2DS2 /// KIR2DS3 /// KIR2DS4 /// KIR3DL3 /// KIR3DL3 /// KIR3DS1 (11738374_at) / RFU C1QL1 (11718748_at) / Fold change /veh C1QL1 (11718748_at) / RFU TMPRSS4 (11747572_a_at) / Fold change /veh TMPRSS4 (11747572_a_at) / RFU HAMP (11756126_x_at) / Fold change /veh HAMP (11756126_x_at) / RFU RNFT2 (11725882_a_at) / Fold change /veh RNFT2 (11725882_a_at) / RFU NR4A2 (11747474_a_at) / Fold change /veh NR4A2 (11747474_a_at) / RFU ABCC12 (11746883_a_at) / Fold change /veh ABCC12 (11746883_a_at) / RFU TMEM136 (11760407_x_at) / Fold change /veh TMEM136 (11760407_x_at) / RFU CLDN22 /// WWC2 (11732394_at) / Fold change /veh CLDN22 /// WWC2 (11732394_at) / RFU HLA-DPB1 (11760878_x_at) / Fold change /veh HLA-DPB1 (11760878_x_at) / RFU SPINT1 (11716480_a_at) / Fold change /veh SPINT1 (11716480_a_at) / RFU GAP43 (11754022_s_at) / Fold change /veh GAP43 (11754022_s_at) / RFU A4GNT (11735810_at) / Fold change /veh A4GNT (11735810_at) / RFU PRB3 (11715151_x_at) / Fold change /veh PRB3 (11715151_x_at) / RFU TUBB4B (11761932_at) / Fold change /veh TUBB4B (11761932_at) / RFU CAPN14 (11732068_a_at) / Fold change /veh CAPN14 (11732068_a_at) / RFU TMCC2 (11721928_a_at) / Fold change /veh TMCC2 (11721928_a_at) / RFU IRGQ (11745062_a_at) / Fold change /veh IRGQ (11745062_a_at) / RFU FAM174B (11720279_a_at) / Fold change /veh FAM174B (11720279_a_at) / RFU TMPRSS4 (11748680_a_at) / Fold change /veh TMPRSS4 (11748680_a_at) / RFU FAM212B (11763350_a_at) / Fold change /veh FAM212B (11763350_a_at) / RFU PLEKHG5 (11743358_a_at) / Fold change /veh PLEKHG5 (11743358_a_at) / RFU ZSCAN30 (11745921_a_at) / Fold change /veh ZSCAN30 (11745921_a_at) / RFU CMKLR1 (11741424_a_at) / Fold change /veh CMKLR1 (11741424_a_at) / RFU LOC101060620 /// MAPK8IP1 (11723275_at) / Fold change /veh LOC101060620 /// MAPK8IP1 (11723275_at) / RFU SPTSSB (11747773_x_at) / Fold change /veh SPTSSB (11747773_x_at) / RFU PRSS12 (11739890_at) / Fold change /veh PRSS12 (11739890_at) / RFU BIN1 (11741810_x_at) / Fold change /veh BIN1 (11741810_x_at) / RFU WNT11 (11732464_a_at) / Fold change /veh WNT11 (11732464_a_at) / RFU C10orf10 (11716521_a_at) / Fold change /veh C10orf10 (11716521_a_at) / RFU C5orf56 (11738089_at) / Fold change /veh C5orf56 (11738089_at) / RFU CYB561 (11721691_x_at) / Fold change /veh CYB561 (11721691_x_at) / RFU ANKRD19P (11752326_a_at) / Fold change /veh ANKRD19P (11752326_a_at) / RFU OR2T12 /// OR2T33 /// OR2T8 (11738714_s_at) / Fold change /veh OR2T12 /// OR2T33 /// OR2T8 (11738714_s_at) / RFU VCAN (11748164_a_at) / Fold change /veh VCAN (11748164_a_at) / RFU JSRP1 (11732532_at) / Fold change /veh JSRP1 (11732532_at) / RFU KRTAP10-11 (11738290_x_at) / Fold change /veh KRTAP10-11 (11738290_x_at) / RFU MYO3A (11730013_a_at) / Fold change /veh MYO3A (11730013_a_at) / RFU EBF3 (11725865_a_at) / Fold change /veh EBF3 (11725865_a_at) / RFU CAMK2N1 (11719241_x_at) / Fold change /veh CAMK2N1 (11719241_x_at) / RFU C5orf56 (11738088_a_at) / Fold change /veh C5orf56 (11738088_a_at) / RFU OLFML3 (11715873_a_at) / Fold change /veh OLFML3 (11715873_a_at) / RFU LOC100653217 /// NTM (11731650_a_at) / Fold change /veh LOC100653217 /// NTM (11731650_a_at) / RFU MAPK11 (11762145_a_at) / Fold change /veh MAPK11 (11762145_a_at) / RFU FIZ1 (11724087_x_at) / Fold change /veh FIZ1 (11724087_x_at) / RFU OASL (11726364_x_at) / Fold change /veh OASL (11726364_x_at) / RFU SOX15 (11748057_x_at) / Fold change /veh SOX15 (11748057_x_at) / RFU CD79A (11719716_a_at) / Fold change /veh CD79A (11719716_a_at) / RFU HIST1H1D (11736915_at) / Fold change /veh HIST1H1D (11736915_at) / RFU CASKIN2 (11723855_a_at) / Fold change /veh CASKIN2 (11723855_a_at) / RFU LOC730098 (11760151_x_at) / Fold change /veh LOC730098 (11760151_x_at) / RFU OR4N2 (11742367_at) / Fold change /veh OR4N2 (11742367_at) / RFU PRRT2 (11749266_a_at) / Fold change /veh PRRT2 (11749266_a_at) / RFU SNX32 (11753110_a_at) / Fold change /veh SNX32 (11753110_a_at) / RFU CDHR5 (11726645_a_at) / Fold change /veh CDHR5 (11726645_a_at) / RFU RCAN1 (11760418_a_at) / Fold change /veh RCAN1 (11760418_a_at) / RFU FAM167A (11723789_a_at) / Fold change /veh FAM167A (11723789_a_at) / RFU FAM26E (11764081_at) / Fold change /veh FAM26E (11764081_at) / RFU ISYNA1 (11749810_s_at) / Fold change /veh ISYNA1 (11749810_s_at) / RFU ACY1 (11761880_at) / Fold change /veh ACY1 (11761880_at) / RFU 11764098_at / Fold change /veh 11764098_at / RFU SAMD14 (11745864_x_at) / Fold change /veh SAMD14 (11745864_x_at) / RFU NPB (11741838_a_at) / Fold change /veh NPB (11741838_a_at) / RFU TMPRSS6 (11731388_a_at) / Fold change /veh TMPRSS6 (11731388_a_at) / RFU KRTAP10-2 (11738614_at) / Fold change /veh KRTAP10-2 (11738614_at) / RFU ARHGAP8 /// PRR5-ARHGAP8 (11727945_x_at) / Fold change /veh ARHGAP8 /// PRR5-ARHGAP8 (11727945_x_at) / RFU KRTAP5-7 /// NADSYN1 (11734609_at) / Fold change /veh KRTAP5-7 /// NADSYN1 (11734609_at) / RFU RASL12 (11751679_a_at) / Fold change /veh RASL12 (11751679_a_at) / RFU CDKN2B (11736163_a_at) / Fold change /veh CDKN2B (11736163_a_at) / RFU PRF1 (11729649_at) / Fold change /veh PRF1 (11729649_at) / RFU, ZNF638 /// ZNF638-IT1 / Fold change vs veh, ZNF638 /// ZNF638-IT1 / RFU, PANK3 / Fold change vs veh, PANK3 / RFU, SH3YL1 / Fold change vs veh, SH3YL1 / RFU, ZEB2 / Fold change vs veh, ZEB2 / RFU, NRIP1 / Fold change vs veh, NRIP1 / RFU, PTTG1IP / Fold change vs veh, PTTG1IP / RFU, CAPN2 / Fold change vs veh, CAPN2 / RFU, MED14 / Fold change vs veh, MED14 / RFU, SNORA58 / Fold change vs veh, SNORA58 / RFU, C1orf63 / Fold change vs veh, C1orf63 / RFU, LRRFIP1 / Fold change vs veh, LRRFIP1 / RFU, NDUFAF7 / Fold change vs veh, NDUFAF7 / RFU, SLC12A2 / Fold change vs veh, SLC12A2 / RFU, IBTK / Fold change vs veh, IBTK / RFU, ESF1 / Fold change vs veh, ESF1 / Fold change vs veh, TMEM50B / RFU, TAOK1 / Fold change vs veh, TAOK1 / RFU, ACBD3 / Fold change vs veh, ACBD3 / RFU, TMA16 / Fold change vs veh, TMA16 / RFU, RWDD3 / Fold change vs veh, RWDD3 / RFU, BCAT1 / Fold change vs veh, BCAT1 / RFU, EDEM3 / Fold change vs veh, EDEM3 / RFU, TMEM33 / Fold change vs veh, TMEM33 / RFU, WDR75 / Fold change vs veh, WDR75 / RFU, AHCTF1 / Fold change vs veh, AHCTF1 / RFU, TFRC / Fold change vs veh, TFRC / RFU, ZDHHC17 / Fold change vs veh, ZDHHC17 / RFU, NOM1 / Fold change vs veh, NOM1 / RFU, ARL8B / Fold change vs veh, ARL8B / RFU, ZBTB11 / Fold change vs veh, ZBTB11 / RFU, TAMM41 / Fold change vs veh, TAMM41 / RFU, KIAA1704 /// LOC100996395 / Fold change vs veh, KIAA1704 /// LOC100996395 / RFU, ING1 / Fold change vs veh, ING1 / RFU, TRMT61B / Fold change vs veh, TRMT61B / RFU, FUBP3 / Fold change vs veh, FUBP3 / RFU, TP53 / Fold change vs veh, TP53 / RFU, TNKS2 / Fold change vs veh, TNKS2 / RFU, ZFP14 / Fold change vs veh, ZFP14 / RFU, ACTR2 / Fold change vs veh, ACTR2 / RFU, PPP3R1 / Fold change vs veh, PPP3R1 / RFU, PIK3R1 / Fold change vs veh, PIK3R1 / RFU, HNRNPA1 / Fold change vs veh, HNRNPA1 / RFU, RNF170 / Fold change vs veh, RNF170 / RFU, ZNF28 / Fold change vs veh, ZNF28 / RFU, RNGTT / Fold change vs veh, RNGTT / RFU, OGT / Fold change vs veh, OGT / RFU, BRD1 / Fold change vs veh, BRD1 / RFU, MARS / Fold change vs veh, MARS / RFU, ZNF655 / Fold change vs veh, ZNF655 / RFU, FAHD1 / Fold change vs veh, FAHD1 / RFU, BDP1 / Fold change vs veh, BDP1 / RFU, LRRCC1 / Fold change vs veh, LRRCC1 / RFU, ARID1A / Fold change vs veh, ARID1A / RFU, ZNF146 / Fold change vs veh, ZNF146 / RFU, ZNF330 / Fold change vs veh, ZNF330 / RFU, GPN3 / Fold change vs veh, GPN3 / RFU, C9orf123 / Fold change vs veh, C9orf123 / RFU, N4BP2L2 / Fold change vs veh, N4BP2L2 / RFU, ARFIP1 / Fold change vs veh, ARFIP1 / RFU, FAM179B / Fold change vs veh, FAM179B / RFU, BCL10 / Fold change vs veh, BCL10 / RFU, UHRF1BP1L / Fold change vs veh, UHRF1BP1L / RFU, BET1 / Fold change vs veh, BET1 / RFU, CNOT2 / Fold change vs veh, CNOT2 / RFU, ZNF268 / Fold change vs veh, ZNF268 / Fold change vs veh, ZNF507 / RFU, DGCR2 / Fold change vs veh, DGCR2 / RFU, WDSUB1 / Fold change vs veh, WDSUB1 / Fold change vs veh, HSP90B1 /// MIR3652 / RFU, ADSS / Fold change vs veh, ADSS / RFU, GK / Fold change vs veh, GK / RFU, ZNF148 / Fold change vs veh, ZNF148 / RFU, TAF9 / Fold change vs veh, TAF9 / RFU, SLC1A5 / Fold change vs veh, SLC1A5 / RFU, SLMO2 / Fold change vs veh, SLMO2 / RFU, ABCC4 / Fold change vs veh, ABCC4 / RFU, LOC101060439 /// RAP1B / Fold change vs veh, LOC101060439 /// RAP1B / RFU, RFX7 / Fold change vs veh, RFX7 / RFU, GTPBP10 / Fold change vs veh, GTPBP10 / RFU, CNEP1R1 / Fold change vs veh, CNEP1R1 / RFU, BIVM-ERCC5 /// ERCC5 / Fold change vs veh, BIVM-ERCC5 /// ERCC5 / RFU, ILF3 / Fold change vs veh, ILF3 / RFU 11762660_at / Fold change /veh 11762660_at / RFU VCAN (11757783_s_at) / Fold change /veh VCAN (11757783_s_at) / RFU DDX43 (11728927_at) / Fold change /veh DDX43 (11728927_at) / RFU KRT8 (11758188_x_at) / Fold change /veh KRT8 (11758188_x_at) / RFU NKD1 (11759106_at) / Fold change /veh NKD1 (11759106_at) / RFU SRD5A1 (11742802_a_at) / Fold change /veh SRD5A1 (11742802_a_at) / RFU TPSAB1 /// TPSB2 (11721975_s_at) / Fold change /veh TPSAB1 /// TPSB2 (11721975_s_at) / RFU GSTM3 (11746129_a_at) / Fold change /veh GSTM3 (11746129_a_at) / RFU IL23R (11737362_x_at) / Fold change /veh IL23R (11737362_x_at) / RFU TMEM51 (11727254_a_at) / Fold change /veh TMEM51 (11727254_a_at) / RFU PIWIL2 (11732686_x_at) / Fold change /veh PIWIL2 (11732686_x_at) / RFU ORM1 (11744905_x_at) / Fold change /veh ORM1 (11744905_x_at) / RFU CCDC152 (11743942_at) / Fold change /veh CCDC152 (11743942_at) / RFU ECM1 (11717891_a_at) / Fold change /veh ECM1 (11717891_a_at) / RFU IL23R (11748794_a_at) / Fold change /veh IL23R (11748794_a_at) / RFU TNFAIP8L3 (11732012_x_at) / Fold change /veh TNFAIP8L3 (11732012_x_at) / RFU MBOAT4 (11741988_at) / Fold change /veh MBOAT4 (11741988_at) / RFU 11764193_at / Fold change /veh 11764193_at / RFU TMEM53 (11763286_at) / Fold change /veh TMEM53 (11763286_at) / RFU MAGEB2 (11727129_at) / Fold change /veh MAGEB2 (11727129_at) / RFU TMEM200A (11744735_a_at) / Fold change /veh TMEM200A (11744735_a_at) / RFU CCDC152 (11751479_a_at) / Fold change /veh CCDC152 (11751479_a_at) / RFU FAM211A (11726209_a_at) / Fold change /veh FAM211A (11726209_a_at) / RFU RGS16 (11746705_a_at) / Fold change /veh RGS16 (11746705_a_at) / RFU VCAN (11755009_s_at) / Fold change /veh VCAN (11755009_s_at) / RFU RHOB (11743442_s_at) / Fold change /veh RHOB (11743442_s_at) / RFU RGS16 (11720943_a_at) / Fold change /veh RGS16 (11720943_a_at) / RFU RGS16 (11720944_at) / Fold change /veh RGS16 (11720944_at) / RFU, VPS4B / Fold change vs veh, VPS4B / RFU, CREB1 / Fold change vs veh, CREB1 / RFU, DNAJC13 / Fold change vs veh, DNAJC13 / RFU, GNAQ / Fold change vs veh, GNAQ / RFU, CDK5R1 / Fold change vs veh, CDK5R1 / RFU, ZRANB3 / Fold change vs veh, ZRANB3 / RFU, CUL4A / Fold change vs veh, CUL4A / RFU, CCNY / Fold change vs veh, CCNY / RFU, UFL1 / Fold change vs veh, UFL1 / RFU, COG3 / Fold change vs veh, COG3 / RFU, DIAPH2 / Fold change vs veh, DIAPH2 / RFU, SKA2 / Fold change vs veh, SKA2 / RFU, AFF3 / Fold change vs veh, AFF3 / RFU, LMF1 / Fold change vs veh, LMF1 / RFU, IPO11 / Fold change vs veh, IPO11 / RFU, DFFB / Fold change vs veh, DFFB / RFU, FOXP1 / Fold change vs veh, FOXP1 / RFU, CARD8 / Fold change vs veh, CARD8 / RFU, STRN3 / Fold change vs veh, STRN3 / RFU, ADK / Fold change vs veh, ADK / RFU, RASSF2 / Fold change vs veh, RASSF2 / RFU, WIPF1 / Fold change vs veh, WIPF1 / RFU, LARP1B / Fold change vs veh, LARP1B / RFU, RASA1 / Fold change vs veh, RASA1 / RFU, RB1 / Fold change vs veh, RB1 / RFU, PPFIA1 / Fold change vs veh, PPFIA1 / RFU, MAT2A / Fold change vs veh, MAT2A / RFU, CCT5 / Fold change vs veh, CCT5 / RFU, WDR92 / Fold change vs veh, WDR92 / RFU, CUX1 / Fold change vs veh, CUX1 / RFU, TTC7A / Fold change vs veh, TTC7A / RFU, TMEM135 / Fold change vs veh, TMEM135 / RFU, DEPTOR / Fold change vs veh, DEPTOR / RFU, CPM / Fold change vs veh, CPM / RFU, DNAJB6 / Fold change vs veh, DNAJB6 / RFU, CACNA2D3 / Fold change vs veh, CACNA2D3 / RFU, DTX4 / Fold change vs veh, DTX4 / RFU, TFCP2 / Fold change vs veh, TFCP2 / RFU, GMCL1 /// GMCL1P1 / Fold change vs veh, GMCL1 /// GMCL1P1 / RFU, AEBP2 / Fold change vs veh, AEBP2 / RFU, SNHG1 /// SNORD22 /// SNORD25 /// SNORD26 /// SNORD27 /// SNORD28 /// SNORD29 /// SNORD31 / Fold change vs veh, SNHG1 /// SNORD22 /// SNORD25 /// SNORD26 /// SNORD27 /// SNORD28 /// SNORD29 /// SNORD31 / Fold change (Aza/veh), C12orf56 (ProbeSet 11735607_a_at) / Fold change (ACY-1035/veh), C12orf56 (ProbeSet 11735607_a_at) / Fold change (Aza/veh), FGFR1OP (ProbeSet 11751329_s_at) / Fold change (ACY-1035/veh), FGFR1OP (ProbeSet 11751329_s_at) / Fold change (Aza/veh), VPS36 (ProbeSet 11739960_a_at) / Fold change (ACY-1035/veh), VPS36 (ProbeSet 11739960_a_at) / RFU SYPL1 (11715823_x_at) / Fold change /veh SYPL1 (11715823_x_at) / RFU IGFBP7 (11715501_s_at) / Fold change /veh IGFBP7 (11715501_s_at) / RFU REEP3 (11722064_at) / Fold change /veh REEP3 (11722064_at) / RFU IGLL1 (11728026_x_at) / Fold change /veh IGLL1 (11728026_x_at): dose or concentration left out as unconfirmed
Settings: ProbeSet 11732433_s_at; LIST B

Nc1ncn([C@@H]2O[C@H](CO)[C@@H](O)[C@H]2O)c(=O)n1 [azacitidine]
Fold change vs veh, GK: 0.93

Source: paper PMC5218480 (PLoS ONE, 2017)
